Experimental data taken from the NIST ThermoML archive (doi:10.1007/s10765-008-0535-5).

Conditions: Liquid, Pycnometric method

FCF [difluoromethane]
Conditions | mass density [kg/m3]
268.15 K, 8268 kPa | 1093.5
268.15 K, 8502 kPa | 1093.5
269.15 K, 9280 kPa | 1093.3
269.15 K, 9512 kPa | 1093.3
270.15 K, 10291 kPa | 1093.2
270.15 K, 10521 kPa | 1093.2
271.15 K, 11302 kPa | 1093
271.15 K, 11531 kPa | 1093
272.15 K, 12312 kPa | 1092.9
272.15 K, 12421 kPa | 1092.9
272.15 K, 12540 kPa | 1092.9
273.15 K, 13321 kPa | 1092.7
273.15 K, 13429 kPa | 1092.8
273.15 K, 13551 kPa | 1092.7
274.15 K, 14330 kPa | 1092.6
274.15 K, 14438 kPa | 1092.6
274.15 K, 14560 kPa | 1092.6
275.15 K, 15337 kPa | 1092.4
275.15 K, 15444 kPa | 1092.4
275.15 K, 15568 kPa | 1092.4
276.15 K, 16344 kPa | 1092.3
276.15 K, 16452 kPa | 1092.3
276.15 K, 16577 kPa | 1092.3
277.15 K, 17350 kPa | 1092.1
277.15 K, 17457 kPa | 1092.1
277.15 K, 17583 kPa | 1092.1
278.15 K, 18354 kPa | 1092
278.15 K, 18462 kPa | 1092
278.15 K, 18589 kPa | 1092
279.15 K, 19358 kPa | 1091.8
279.15 K, 19465 kPa | 1091.8
279.15 K, 19595 kPa | 1091.8
280.15 K, 20361 kPa | 1091.7
280.15 K, 20468 kPa | 1091.7
280.15 K, 20598 kPa | 1091.7
281.15 K, 21363 kPa | 1091.5
281.15 K, 21470 kPa | 1091.5
281.15 K, 21601 kPa | 1091.5
282.15 K, 22363 kPa | 1091.4
282.15 K, 22472 kPa | 1091.4
282.15 K, 22602 kPa | 1091.4
283.15 K, 23363 kPa | 1091.2
283.15 K, 23473 kPa | 1091.2
283.15 K, 23603 kPa | 1091.2
284.15 K, 24362 kPa | 1091.1
284.15 K, 24472 kPa | 1091.1
284.15 K, 24606 kPa | 1091
285.15 K, 25359 kPa | 1090.9
285.15 K, 25470 kPa | 1090.9
285.15 K, 25603 kPa | 1090.9
286.15 K, 26356 kPa | 1090.8
286.15 K, 26466 kPa | 1090.8
286.15 K, 26598 kPa | 1090.7
287.15 K, 27351 kPa | 1090.6
287.15 K, 27461 kPa | 1090.6
287.15 K, 27594 kPa | 1090.6
288.15 K, 28345 kPa | 1090.4
288.15 K, 28454 kPa | 1090.4
288.15 K, 28588 kPa | 1090.4
289.15 K, 5774 kPa | 1015.9
289.15 K, 5835 kPa | 1015.9
289.15 K, 29338 kPa | 1090.3
289.15 K, 29446 kPa | 1090.3
289.15 K, 29581 kPa | 1090.3
290.15 K, 6570 kPa | 1015.8
290.15 K, 6631 kPa | 1015.8
291.15 K, 7365 kPa | 1015.7
291.15 K, 7428 kPa | 1015.7
292.15 K, 8161 kPa | 1015.6
292.15 K, 8224 kPa | 1015.5
293.15 K, 8956 kPa | 1015.5
293.15 K, 9019 kPa | 1015.4
294.15 K, 9752 kPa | 1015.3
294.15 K, 9815 kPa | 1015.3
295.15 K, 10546 kPa | 1015.2
295.15 K, 10610 kPa | 1015.2
296.15 K, 11341 kPa | 1015.1
296.15 K, 11405 kPa | 1015.1
297.15 K, 12135 kPa | 1015
297.15 K, 12199 kPa | 1014.9
298.15 K, 12929 kPa | 1014.9
298.15 K, 12993 kPa | 1014.8
299.15 K, 13723 kPa | 1014.7
299.15 K, 13787 kPa | 1014.7
300.15 K, 14517 kPa | 1014.6
300.15 K, 14581 kPa | 1014.6
301.15 K, 15309 kPa | 1014.5
301.15 K, 15374 kPa | 1014.4
302.15 K, 16102 kPa | 1014.4
302.15 K, 16167 kPa | 1014.3
303.15 K, 16894 kPa | 1014.2
303.15 K, 16960 kPa | 1014.2
304.15 K, 17685 kPa | 1014.1
304.15 K, 17752 kPa | 1014.1
305.15 K, 18476 kPa | 1014
305.15 K, 18543 kPa | 1014
306.15 K, 19267 kPa | 1013.9
306.15 K, 19335 kPa | 1013.8
307.15 K, 20125 kPa | 1013.7
308.15 K, 20848 kPa | 1013.6
308.15 K, 20915 kPa | 1013.6
309.15 K, 21639 kPa | 1013.5
309.15 K, 21704 kPa | 1013.4
310.15 K, 22429 kPa | 1013.4
310.15 K, 22492 kPa | 1013.3
311.15 K, 23217 kPa | 1013.3
311.15 K, 23281 kPa | 1013.2
312.15 K, 24005 kPa | 1013.2
312.15 K, 24068 kPa | 1013.1
313.15 K, 24793 kPa | 1013
313.15 K, 24855 kPa | 1012.9
314.15 K, 25579 kPa | 1012.9
314.15 K, 25641 kPa | 1012.8
315.15 K, 26364 kPa | 1012.8
315.15 K, 26427 kPa | 1012.7
316.15 K, 27149 kPa | 1012.7
316.15 K, 27212 kPa | 1012.6
317.15 K, 27934 kPa | 1012.5
317.15 K, 27996 kPa | 1012.4
318.15 K, 28719 kPa | 1012.4
318.15 K, 28779 kPa | 1012.3
